This is an account of results in patent US6638974B1, “Ascorbyl esters for the treatment of cancer” (University of South Florida, priority 1999, dated 2003).

Common to all, as to format: cell-based, human
The test system of assay [1] is PANC-1 cells. Briefly: MTT cell growth and viability assay, PANC-1. The settings on record: 50-175 μM Asc-S, 24 hours, MEM+10% FBS or serum free MEM+15 nM IGF-1. The procedure: PANC-1 Cell Culture: The human pancreatic ductal adenocarcinoma cell line PANC-1 was obtained from the American Type Culture Collection (Rockville, Md.). PANC-1 cells were cultured for 24 hours in Minimum Essential Medium (MEM) (Whitaker M A Bioproducts, Walkersville, Md.) supplemented with 10% fetal bovine serum (FBS) (Hyclone Laboratories, Logan, Utah) or serum free MEM+15 nM human recombinant IGF-1, penicillin (50 U/ml), streptomycin (50 μg/ml) and 1.0 mM L-glutamine.
Cell Growth and Vitality: The effect of Asc-S on PANC-1 and PC-1 cell growth and viability was evaluated by 3-(4,5-dimethylthiazol-2yl)-2,5-diphenyl-tetrazoliumbromide (MTT) (Sigma Chemical Co., St. Louis, Md.) assay and the details of the procedure are as described earlier (Naidu et al., 1993a) PANC-1 cells were seeded at 2.5×10^4 viable cells well in 0.1 ml MEM supplemented with 10% FBS or serum free MEM with 15 nM human recombinant IGF-1 in 96 multiwell tissue culture plates. The following day when the cells were nearly confluent, the medium was replaced with fresh medium and 50, 75, 100, 125, 150, 175 and 200 μM Asc-S were added and incubated in a CO2 incubator at 37° C. for 24 hours with respective untreated controls.

The test system of assay [2] is PANC-1 cells. Briefly: Soft agar colony growth, PANC-1. Particulars: PANC-1, 150 μM Asc-S. How it is done: Soft agar experiments: To test the hypothesis that treatment of PANC-1 cells in culture with Asc-S reverses their transformed phenotype, the growth of PANC-1 was assessed in soft agar. PANC-1 cells were seeded at a density of 3×10^3/35 mm plate in 10% serum on a top layer of 0.3% agar and a bottom layer of 1% agar with and without the addition of 150 μM of Asc-S for 24 hours. The Asc-S was added to the top layer every day. Colonies greater than 125 microns in diameter (or ten cells) were counted at weekly intervals for 14-21 days. The clonogenicity was determined in three independent experiments comprising six replicates.

Assay [3] relates to PANC-1 cells. As to the kind of experiment: Apoptosis by in situ TUNEL assay, PANC-1. The settings on record: 150 μM, 24 hours. The procedure:
Detection of Apoptosis By In Situ Hybridization Using TUNEL Reaction: Apoptosis was determined by TdT-mediated dUTP nick end labeling (TUNEL) using an in situ cell death detection kit (Boehringer Mannheim, Indianapolis, Ind.). Asc-S treated and untreated PANC-1 cells were trypsinized and cytospin preparations were obtained. Cells were fixed with paraformaldehyde (4% in PBS, pH 7.4). After a rinse in PBS, the slides were incubated in permeabilization solution. Slides were cross-reacted with TUNEL reaction mixture for 60 minutes at 37° C. in a humidified chamber. Slides were thoroughly rinsed and reacted with alkaline phosphatase substrate solution for five to ten minutes (Vector Laboratories, Burlington, Mass.). The slides were analyzed under light microscope. These experiments were performed in duplicate.

Assay [4] concerns T98G cells. Briefly: MTT cell proliferation assay, T98G. Particulars: for inhibition at 50 µM / inhibition at 100 µM / inhibition at 175 µM: Homo sapiens, T98G. How it is done:
T98G cell proliferation: Murine (G26) and human glioma (U-373) cell proliferation was inhibited following exposure to ascorbyl esters (Naidu et al., 1993a and 1993b). The cell proliferation was assessed by [^3H] thymidine incorporation and MTT assay (Naidu et al., 1993a, 1993b and 1996). […] The T98G cells were cultured for 24 hours in MEM+10% FBS, and, when confluent, were treated with 0 (untreated control), 50, 75, 100, 125, 150 and 175 μM Asc-S. Appropriate untreated controls were included. The cell proliferation was measured by MTT assay.
(In general: Formazan colour is commonly taken as a measure of viable cells.)

Assay [5] concerns T98G cells. As to the kind of experiment: Cell multiplication cycle, T98G. Particulars: 50-175 μM Asc-S. The source says: Human glioma cell proliferation and tumorigrenicity are under autocrine control of the insulin like growth factor 1 (IGF-1) and its receptor (IGF-1R). Although it has been known for quite some time that ascorbic acid and its derivatives have anti-proliferative effects on various tumor cells, the precise mechanism of action is unknown. This study presents data on Ascorbyl Stearate (Asc-S) […] glioma (T98G) cell proliferation and transformation. Asc-S inhibited 10% fetal bovine serum (FBS) and human recombinant IGR-1 ([…]) dependent T98G cell proliferation in a dose dependent manner. […] The inhibition of IGF-1 Rs was also time and dose dependent.

The subject of assay [6] is IGF1-R. As to the kind of experiment: IGF1-R expression by Western immunoblotting, U-373. Particulars: 75 μM, 24 hours, MEM+10% FBS. How it is done:
(§1) The T98G and U-373 cells were cultured for 24 hours in MEM+10% FBS and when confluent were treated with 100 μM and 75 μM, Asc-S for 24 hours, respectively. […] In addition, it was also observed that the inhibition of IGF1-R expression was dose and time dependent. The T98G cells culture in MEM+10% FBS and treated with different concentrations of Asc-S, e.g. 50, 75, 100, 125, 150 and 175 μM for 24 hours, inhibited IGF1-R in a dose dependent fashion (FIG. 8C). The T98G cells treated with 100 μM Asc-S for different time points, e.g. 1, 3, 6, 12 and 24 hours inhibited IGF1-R in a time dependent manner (FIG. 8D). IGF1-R expression was evaluated by Western immunoblotting technique with rabbit-antihuman IGF1-R antibodies (Upstate Biotechnology, Lake Placid, N.Y.) with HRP conjugated anti-rabbit secondary antibody.
(§2) The inhibition of IGF1-R expression was also dose and time dependent. […] The following are depicted in FIG. 8B: Lane 1: P6 positive control for IGF1-R […]; Lane 2: untreated T98G cells; Lane 3: Asc-S (125 μM) treated T98G cells. […]
(In western blotting, separated proteins are transferred to a membrane and probed.)

Assay [7] has as its system PDGF-R. Briefly: PDGF-R expression by Western blot, PANC-1. The settings on record: 150 μM, 24 hours.
Assay [8] concerns IGF1-R. As to the kind of experiment: IGF1-R expression by Western immunoblotting, T98G. The settings on record: 100 μM, 24 hours, MEM+10% FBS. How it is done:
as §1, §2

A word on the inhibition: it is the drop in the measured response relative to a control, in per cent. Low values mean little suppression, high ones strong suppression. Consider `CCCCCCCCCCCCCCCCCC(=O)OC[C@H](O)[C@H]1OC(=O)C(O)=C1O` [Asc-S, Ascorbyl stearate], for which, in assay [1], the “PANC-1 cell proliferation (MTT assay)” value is reported as “inhibited cell proliferation in a dose dependent manner”. The “soft agar colonies, 1st week” value in assay [2] (1st week) was found to be 0 colonies. Besides, in assay [2] (2nd week), the “soft agar colonies, 2nd week” value stood at 15 colonies. Further, the “soft agar colonies, 3rd week” value in assay [2] (third week) was determined as 50 colonies. Moreover, in assay [3], the “apoptosis (in situ TUNEL), PANC-1” value is on record as “significant increase in apoptosis”. Further, the “T98G cell proliferation (MTT assay)” value in assay [4] (50-175 μM Asc-S, 24 hours) was “inhibited cell proliferation in a dose dependent manner”. Moreover, the inhibition at 50 µM in assay [4] (cultured with FBS, 50 μM) was 8.7%; in assay [4] (with IGF-1, 50 μM), 15.3%. Also, the inhibition at 100 µM in assay [4] (cultured with FBS, 100 μM) came out at 38.5%; in assay [4] (with IGF-1, 100 μM), 54.2%. Also, the inhibition at 175 µM stood at 87.2% in assay [4] (cultured with FBS, 175 μM) and 87.7% in assay [4] (with IGF-1, 175 μM). The “cell multiplication cycle, T98G” value in assay [5] was “arrest of cell multiplication cycle in G1/Go phase”. Besides, the “IGF1-R expression, U-373 cells” value in assay [6] was “significantly down regulated”. For the same compound, the “PDGF-R expression, PANC-1” value in assay [7] was “did not affect”. Moreover, in assay [8], the “IGF1-R expression, T98G cells” value is on record as “significantly down regulated”.
